Biological target: Histone acetyltransferase KAT2B (Homo sapiens, UniProt Q92831)
Assay: Binding affinity to human partial length PCAF bromodomain expressed in mammalian expression system by BROMOscan method

Sequence of Histone acetyltransferase KAT2B (Q92831 whole entry): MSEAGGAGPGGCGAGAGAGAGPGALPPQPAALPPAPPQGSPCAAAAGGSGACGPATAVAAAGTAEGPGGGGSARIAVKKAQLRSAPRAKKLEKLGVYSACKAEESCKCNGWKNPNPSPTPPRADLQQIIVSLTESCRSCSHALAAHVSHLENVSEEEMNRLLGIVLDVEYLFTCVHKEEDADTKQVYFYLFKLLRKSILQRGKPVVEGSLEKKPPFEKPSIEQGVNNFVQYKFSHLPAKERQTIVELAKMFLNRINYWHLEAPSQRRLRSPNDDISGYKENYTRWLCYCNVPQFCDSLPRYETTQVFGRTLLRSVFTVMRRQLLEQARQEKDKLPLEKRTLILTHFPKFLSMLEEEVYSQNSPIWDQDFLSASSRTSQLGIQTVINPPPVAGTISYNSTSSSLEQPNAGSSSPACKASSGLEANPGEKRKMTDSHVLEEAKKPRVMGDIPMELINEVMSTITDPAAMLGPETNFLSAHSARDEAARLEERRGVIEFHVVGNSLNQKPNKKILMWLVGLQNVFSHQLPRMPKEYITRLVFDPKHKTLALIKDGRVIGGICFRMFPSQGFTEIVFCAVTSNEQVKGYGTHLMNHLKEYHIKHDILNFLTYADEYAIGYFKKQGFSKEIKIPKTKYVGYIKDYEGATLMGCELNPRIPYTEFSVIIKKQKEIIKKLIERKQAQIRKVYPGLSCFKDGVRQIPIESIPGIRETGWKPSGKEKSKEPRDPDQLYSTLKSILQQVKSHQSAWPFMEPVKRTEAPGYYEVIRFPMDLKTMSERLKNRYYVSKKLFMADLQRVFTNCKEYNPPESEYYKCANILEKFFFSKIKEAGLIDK

For CN1C[C@H](Nc2cnn(C)c(=O)c2Br)C[C@H](c2ccccc2)C1, the Ki was 1.26 nM.

— BindingDB's records for doi:10.1021/acs.jmedchem.6b01566 (Glaxosmithkline, 2017)
